Patent US20080221167A1, “Selective Insecticides Based on Haloalkylnicotinic Acid Derivatives, Anthranilic Acid Diamides, or Phthalic Acid Diamides and Safeners” (priority 2004, published 2008)

Columns and labels:
Format in all cases: in vivo
Myzus persicae = Myzus persicae test, spray application dripping wet (bell pepper plants); conditions: alone; for Kill in % after 3d: Table F1; for Kill in % after 7d: Table F2
Description: (§1) Solvent: water Adjuvant: rapeseed oil methyl ester
(§2) To produce a suitable application solution, 1 part by weight of the formulation is mixed with the appropriate amount of water and the adjuvant and the concentrate is diluted with water to the desired concentration.
Bell pepper plants (Capsicum sativum) which are heavily infested by the green peach aphid (Myzus persicae) are sprayed to runoff point with the desired concentration of the application solution.
(§3) After the desired period of time, the kill in % is determined. 100% means that all aphids have been killed; 0% means that none of the aphids have been killed. The determined kill rates are entered into Colby's formula (see sheet 1).

Plutella xylostella = Plutella xylostella test, spray treatment dripping wet (cabbage plants); conditions: alone; for Kill in % after 7d: Table B1
Description: (§4) To produce a suitable solution, 1 part by weight of formulation is mixed with the stated amount of water and adjuvant and the concentrate is diluted with water to the desired concentration.
Cabbage plants (Brassica pekinesis) are sprayed to runoff point with the desired use concentration and populated with larvae of the diamondback moth (Plutella xylostella) while the leaves are still moist.
(§5) After the desired period of time, the kill in % is determined. 100% means that all larvae have been killed; 0% means that none of the larvae have been killed. The determined kill rates are entered into Colby's formula (see above).

Spodoptera frugiperda = Spodoptera frugiperda test, spray treatment dripping wet (corn plants); conditions: Table C2; 100 ppm; alone
Description: as §4
Spodoptera frugiperda Test
Corn plants (Zea mais) are sprayed to runoff point with the desired use concentration and populated with caterpillars of the armyworm (Spodoptera frugiperda) while the leaves are still moist.
as §5

Metopolophium dirhodum = Metopolophium dirhodum test, spray application dripping wet (barley plants); conditions: 100 ppm, alone
Description: as §1, §2
Metopolophium dirhodum Test
Barley plants (Hordeum vulgare) which are heavily infested by a cereal aphid (Metopolophium dirhodum) are sprayed to runoff point with the desired concentration of the application solution.
as §3

Aphis gossypii = Aphis gossypii test, spray application dripping wet (cotton plants); conditions: alone
Description: as §1, §2
Cotton plants (Gossypium herbaceum) which are heavily infested by the cotton aphid (Aphis gossypii) are sprayed to runoff point with the desired concentration of the application solution.
as §3

Heliothis armigera = Heliothis armigera test, spray treatment dripping wet (cotton plants); conditions: alone; for Kill in % after 3d: Table A2; for Kill in % after 7d: Table A1
Description: as §4
Cotton plants (Gossypium hirsutum) are sprayed to runoff point with the desired use concentration and populated with caterpillars of the cotton bollworm (Heliothis armigera) while the leaves are still moist.
as §5

Clc1cc(Cl)nc(-c2ccccc2)n1 [fenclorim, 4,6-dichloro-2-phenylpyrimidine]
0%: Kill in % after 3d (Myzus persicae; 25 ppm) | Kill in % after 7d (Myzus persicae; 100 ppm) | Kill in % after 7d (Plutella xylostella; 25 ppm) | Kill in % after 3d (Spodoptera frugiperda) | Kill in % after 7d (Metopolophium dirhodum; Table E1) | Kill in % after 7d (Metopolophium dirhodum; Table E2) | Kill in % after 7d (Aphis gossypii; Table D1, 100 ppm) | Kill in % after 7d (Aphis gossypii; Table D2, 100 ppm) | Kill in % after 3d (Heliothis armigera; 100 ppm)

C=CCN(CC=C)C(=O)C(Cl)Cl [dichlormid, 2,2-dichloro-N,N-di-2-propenylacetamide]
0%: Kill in % after 3d (Myzus persicae; 25 ppm) | Kill in % after 7d (Myzus persicae; 100 ppm) | Kill in % after 3d (Plutella xylostella; Table B2, 100 ppm) | Kill in % after 3d (Spodoptera frugiperda) | Kill in % after 7d (Metopolophium dirhodum; Table E1) | Kill in % after 7d (Metopolophium dirhodum; Table E2) | Kill in % after 7d (Aphis gossypii; Table D1, 100 ppm) | Kill in % after 7d (Aphis gossypii; Table D2, 50 ppm) | Kill in % after 7d (Heliothis armigera; 100 ppm) | Kill in % after 3d (Heliothis armigera; 100 ppm)

CC1(C)OC(c2ccco2)CN1C(=O)C(Cl)Cl (stereo not shown) [furilazole, 3-dichloroacetyl-5-(2-furanyl)-2,2-dimethyloxazolidine]
0%: Kill in % after 3d (Myzus persicae; 100 ppm) | Kill in % after 7d (Plutella xylostella; 50 ppm) | Kill in % after 3d (Spodoptera frugiperda) | Kill in % after 7d (Metopolophium dirhodum; Table E1) | Kill in % after 7d (Metopolophium dirhodum; Table E2) | Kill in % after 7d (Aphis gossypii; Table D1, 100 ppm) | Kill in % after 7d (Aphis gossypii; Table D2, 100 ppm) | Kill in % after 7d (Heliothis armigera; 25 ppm) | Kill in % after 3d (Heliothis armigera; 50 ppm)
